Measurements: patent US20230104936A1, “TRPML MODULATORS” (Casma Therapeutics, Inc., priority 2019, published 2023)

What follows are molecules tested on TFEB (assay: TFEB nuclear translocation assay, HeLa wt cells). Details: Homo sapiens, HeLa, 2 h, 2 hrs compound treatment, Table 1 does not say HeLa wt or TRPML1 KO.
Format: cell-based
Summary of the method: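 HeLa wt or TRPML1 KO cells treated 2 hrs with compounds at 37° C, fixed in 4% PFA, immunostained with anti-TFEB plus Alexa 488 secondary and Hoechst. Imaged at ×20, four fields/well; read-out is nuclear/perinuclear-ring TFEB intensity ratio, reported as AC50.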

| SMILES | AC50 [nM] |
| --- | --- |
| CC1(C)Cc2cc(S(=O)(=O)Nc3cccc(F)c3N3CCC(CN4C5COCC4C5)CC3)ccc2O1 [Compound A-875, N-{3-fluoro-2-[4-({3-oxa-6-azabicyclo[3.1.1]heptan-6-yl}methyl)piperidin-1-yl]phenyl}-2,2-dimethyl-2,3-dihydro-1-benzofuran-5-sulfonamide] | ≥ 10000 |
| O=S(=O)(Nc1cccc(F)c1N1CCC(CN2C3COCC2C3)CC1)c1ccc2c(c1)CCC2 [Compound A-876, N-{3-fluoro-2-[4-({3-oxa-6-azabicyclo[3.1.1]heptan-6-yl}methyl)piperidin-1-yl]phenyl}-2,3-dihydro-1H-indene-5-sulfonamide] | ≥ 10000 |
| CN(C)S(=N)(=O)c1ccc(S(=O)(=O)Nc2ccccc2N2CCC(COC(F)(F)CF)CC2)cc1 (stereo not shown) [Compound A-877, N,N-dimethyl-4-[(2-{4-[(1,1,2-trifluoroethoxy)methyl]piperidin-1-yl}phenyl)sulfamoyl]benzene-1-sulfonoimidamide] | ≤ 2000 |
| C[C@@H]1CN(CC2CCN(c3c(C#N)cccc3NS(=O)(=O)c3ccc(S(=O)(=O)N(C)C)cc3)CC2)C[C@H](C)O1 [Compound A-878, N4-[3-cyano-2-(4-{[(2R,6S)-2,6-dimethylmorpholin-4-yl]methyl}piperidin-1-yl)phenyl]-N1,N1-dimethylbenzene-1,4-disulfonamide] | ≤ 2000 |
| CC(c1cccnc1N1CCC(CN2C[C@@H](C)O[C@@H](C)C2)CC1)S(=O)(=O)c1ccc(S(=O)(=O)N(C)C)cc1 (stereo partly drawn) [Compound A-879, 4-{1-[2-(4-{[(2R,6S)-2,6-dimethylmorpholin-4-yl]methyl}piperidin-1-yl)pyridin-3-yl]ethanesulfonyl}-N,N-dimethylbenzene-1-sulfonamide] | ≤ 2000 |
| CC1(C)Cc2cc(S(=O)(=O)Nc3cccc(F)c3N3CCC(CN4C5CCC4COC5)CC3)ccc2O1 [Compound A-880, N-{3-fluoro-2-[4-({3-oxa-8-azabicyclo[3.2.1]octan-8-yl}methyl)piperidin-1-yl]phenyl}-2,2-dimethyl-2,3-dihydro-1-benzofuran-5-sulfonamide] | ≤ 2000 |
| Cc1ccc(S(=O)(=O)Nc2cccc(F)c2N2CCC(CN3C4CCC3COC4)CC2)cc1 [Compound A-881, N-{3-fluoro-2-[4-({3-oxa-8-azabicyclo[3.2.1]octan-8-yl}methyl)piperidin-1-yl]phenyl}-4-methylbenzene-1-sulfonamide] | ≤ 2000 |
| O=S(=O)(Nc1cccc(F)c1N1CCC(CN2C3CCC2COC3)CC1)c1ccc2c(c1)CCC2 [Compound A-882, N-{3-fluoro-2-[4-({3-oxa-8-azabicyclo[3.2.1]octan-8-yl}methyl)piperidin-1-yl]phenyl}-2,3-dihydro-1H-indene-5-sulfonamide] | ≤ 2000 |
| CN(C)S(=O)(=O)c1ccc(S(=O)(=O)Nc2cccc(F)c2N2CCC(CN3CC4C(C3)C4(F)F)CC2)cc1 (stereo not shown) [Compound A-883, N4-{2-[4-({6,6-difluoro-3-azabicyclo[3.1.0]hexan-3-yl}methyl)piperidin-1-yl]-3-fluorophenyl}-N1,N1-dimethylbenzene-1,4-disulfonamide] | ≤ 2000 |
| CC(c1cccc(F)c1N1CCC(CN2C3CCC2COC3)CC1)S(=O)(=O)c1ccc2c(c1)CC(C)(C)O2 (stereo not shown) [Compound A-886, 8-{[1-(2-{1-[(2,2-dimethyl-2,3-dihydro-1-benzofuran-5-yl)sulfonyl]ethyl}-6-fluorophenyl)piperidin-4-yl]methyl}-3-oxa-8-azabicyclo[3.2.1]octane] | ≤ 2000 |
| Cc1cc(Cl)c(N2CCOCC2)c(NS(=O)(=O)c2ccc3c(c2)CCC3)c1 [Compound A-887, N-[3-chloro-5-methyl-2-(morpholin-4-yl)phenyl]-2,3-dihydro-1H-indene-5-sulfonamide] | ≤ 2000 |
| Cc1cc(Cl)c(N2CCOCC2)c(NS(=O)(=O)c2ccc(S(=O)(=O)N(C)C)cc2)c1 [Compound A-888, N4-[3-chloro-5-methyl-2-(morpholin-4-yl)phenyl]-N1,N1-dimethylbenzene-1,4-disulfonamide] | 2010 to 8000 |
| Cc1ccc(S(=O)(=O)Nc2cccc(F)c2N2CCC(CN3C4COCC3C4)CC2)cc1 [Compound A-889, N-{3-fluoro-2-[4-({3-oxa-6-azabicyclo[3.1.1]heptan-6-yl}methyl)piperidin-1-yl]phenyl}-4-methylbenzene-1-sulfonamide] | 2010 to 8000 |
| O=S(=O)(Nc1cccc(F)c1N1CCC(CN2C3COCC2C3)CC1)c1ccc(C(F)(F)C2CC2)cc1 [Compound A-898, 4-(cyclopropyldifluoromethyl)-N-{3-fluoro-2-[4-({3-oxa-6-azabicyclo[3.1.1]heptan-6-yl}methyl)piperidin-1-yl]phenyl}benzene-1-sulfonamide] | ≥ 10000 |
| CN(C)S(=O)(=O)c1ccc(S(=O)(=O)Nc2cccc(F)c2N2CCC(C)(N)CC2)cc1 [Compound A-899, N4-[2-(4-amino-4-methylpiperidin-1-yl)-3-fluorophenyl]-N1,N1-dimethylbenzene-1,4-disulfonamide] | ≥ 10000 |
| C[C@@H]1COC[C@H](C)N1CC1CN(c2c(F)cccc2NS(=O)(=O)c2ccc(S(=O)(=O)N(C)C)cc2)C1 [Compound A-900, N4-[2-(3-{[(3R,5S)-3,5-dimethylmorpholin-4-yl]methyl}azetidin-1-yl)-3-fluorophenyl]-N1,N1-dimethylbenzene-1,4-disulfonamide] | ≥ 10000 |

| SMILES | AC50 [nM] |
| --- | --- |
| C#Cc1cccc(NS(=O)(=O)c2ccc(S(=O)(=O)N(C)C)cc2)c1N1CCCCC1 [Compound A-901, N4-[3-ethynyl-2-(piperidin-1-yl)phenyl]-N1,N1-dimethylbenzene-1,4-disulfonamide] | ≤ 2000 |
| CC(c1cccc(F)c1N1CCC(CN2C3CCC2COC3)CC1)S(=O)(=O)c1ccc(S(C)(=O)=O)cc1 (stereo not shown) [Compound A-904, 8-[(1-{2-fluoro-6-[1-(4-methanesulfonylbenzenesulfonyl)ethyl]phenyl}piperidin-4-yl)methyl]-3-oxa-8-azabicyclo[3.2.1]octane] | 2010 to 8000 |
| Cc1ccc(S(=O)(=O)C(C)c2cccc(F)c2N2CCC(CN3C4CCC3COC4)CC2)cc1 (stereo not shown) [Compound A-905, 8-[(1-{2-fluoro-6-[1-(4-methylbenzenesulfonyl)ethyl]phenyl}piperidin-4-yl)methyl]-3-oxa-8-azabicyclo[3.2.1]octane] | ≤ 2000 |
| CC(c1cccc(F)c1N1CCC(CN2C3CCC2COC3)CC1)S(=O)(=O)c1ccc(C(F)F)cc1 (stereo not shown) [Compound A-906, 8-{[1-(2-{1-[4-(difluoromethyl)benzenesulfonyl]ethyl}-6-fluorophenyl)piperidin-4-yl]methyl}-3-oxa-8-azabicyclo[3.2.1]octane] | ≤ 2000 |
| CC(c1cccc(F)c1N1CCC(CN2C3CCC2COC3)CC1)S(=O)(=O)c1ccc2c(c1)CCC2 (stereo not shown) [Compound A-908, 8-[(1-{2-[1-(2,3-dihydro-1H-indene-5-sulfonyl)ethyl]-6-fluorophenyl}piperidin-4-yl)methyl]-3-oxa-8-azabicyclo[3.2.1]octane] | 2010 to 8000 |
| CN(C)S(=O)(=O)c1ccc(S(=O)(=O)Nc2cccc(F)c2N2CCC(N3CCC34CCCOC4)CC2)cc1 (stereo not shown) [Compound A-917, N4-[3-fluoro-2-(4-{6-oxa-1-azaspiro[3.5]nonan-1-yl}piperidin-1-yl)phenyl]-N1,N1-dimethylbenzene-1,4-disulfonamide] | 2010 to 8000 |
| C[C@@H]1CN(CC2CCCN(c3c(F)cccc3NS(=O)(=O)c3ccc(S(=O)(=O)N(C)C)cc3)CC2)C[C@H](C)O1 (stereo partly drawn) [Compound A-918, N4-[2-(4-{[(2R,6S)-2,6-dimethylmorpholin-4-yl]methyl}azepan-1-yl)-3-fluorophenyl]-N1,N1-dimethylbenzene-1,4-disulfonamide] | ≤ 2000 |
| O=S(=O)(Nc1cccc(F)c1N1CCC(CN2C3CCC2COC3)CC1)c1ccc(C(F)(F)C2CC2)cc1 [Compound A-919, 4-(cyclopropyldifluoromethyl)-N-{3-fluoro-2-[4-({3-oxa-8-azabicyclo[3.2.1]octan-8-yl}methyl)piperidin-1-yl]phenyl}benzene-1-sulfonamide] | ≤ 2000 |
| CC(c1cccc(F)c1N1CCCCC1)S(=O)(=O)c1ccc2c(c1)CCS2(=O)=O (stereo not shown) [Compound A-920, 5-{1-[3-fluoro-2-(piperidin-1-yl)phenyl]ethanesulfonyl}-2,3-dihydro-1λ^6-benzothiophene-1,1-dione] | ≥ 10000 |
| CN(C)S(=O)(=O)c1ccc(S(=O)(=O)Nc2cccc(C#CC(F)F)c2N2CCCCC2)cc1 [Compound A-921, N4-[3-(3,3-difluoroprop-1-yn-1-yl)-2-(piperidin-1-yl)phenyl]-N1,N1-dimethylbenzene-1,4-disulfonamide] | ≤ 2000 |
| CC(C)S(=N)(=O)c1ccc(S(=O)(=O)[C@H](C)c2cccc(F)c2N2CCCCC2)cc1 (stereo partly drawn) [Compound A-922, (4-(((R)-1-(3-fluoro-2-(piperidin-1-yl)phenyl)ethyl)sulfonyl)phenyl)(imino)(isopropyl)-λ^6-sulfanone] | ≥ 10000 |
| Cc1cc(NS(=O)(=O)c2ccc(S(=O)(=O)N(C)C)cc2)n(C2CCCCC2)c(=O)c1 [Compound A-934, N4-(1-cyclohexyl-4-methyl-6-oxo-1,6-dihydropyridin-2-yl)-N1,N1-dimethylbenzene-1,4-disulfonamide] | ≥ 10000 |
| CC(c1cccc(F)c1N1CCCCC1)S(=O)(=O)c1ccc(S(=O)(=O)N(C)C)nn1 (stereo not shown) [Compound A-941, 6-{1-[3-fluoro-2-(piperidin-1-yl)phenyl]ethanesulfonyl}-N,N-dimethylpyridazine-3-sulfonamide] | 2010 to 8000 |
| Cc1cnc(N2CCC(CN3CCC(F)(F)CC3)CC2)c(NS(=O)(=O)c2ccc(S(=O)(=O)N(C)C)cc2)c1 [Compound A-952, N4-(2-{4-[(4,4-difluoropiperidin-1-yl)methyl]piperidin-1-yl}-5-methylpyridin-3-yl)-N1,N1-dimethylbenzene-1,4-disulfonamide] | ≤ 2000 |
| CN=S(=O)(c1ccc(S(=O)(=O)Nc2cccc(F)c2N2CCC(CN3C[C@@H](C)O[C@@H](C)C3)CC2)cc1)N(C)C (stereo partly drawn) [Compound A-956, 4-{[2-(4-{[(2R,6S)-2,6-dimethylmorpholin-4-yl]methyl}piperidin-1-yl)-3-fluorophenyl]sulfamoyl}-N,N,N-trimethylbenzene-1-sulfonoimidamide] | ≤ 2000 |
